# Reference: US7662824B2, “Acylhydrazones as kinase modulators” (Janssen Pharmaceutica NV, priority 2005, dated 2010)
# Where a name gives a salt, the structure may show the parent alone.
# Tests used:
# [1] = biological target: T1, c-Met (Homo sapiens, UniProt P08581); assay: Delfia autophosphorylation kinase assay on the c-Met; assay type: biochemical; parameters: The purified His6 tagged cytoplasmic domain of c-Met was diluted to a concentration of 500 ng/ml; made in house; host or cells: Sf9 insect cells with recombinant baculovirus; Large-scale expression and purification were done by the contract lab Pan Vera; details: His6 tagged cytoplasmic domain of c-Met, 1 μM ATP; read-out: c-Met Delfia Autophos IC50
# Experimental: This example describes the cloning, expression, and purification of the cytoplasmic domain of c-Met which has the c-Met receptor tyrosine kinase activity.
# A DELFIA time resolved fluorescence assay was developed for screening of compounds that decreases the autophosphorylation thus the kinase activity of c-Met.
# The DELFIA assay is non-radioactive. The autophophorylation of the c-Met is measured by an anti-phosphotyrosine antibody coupled to an Europium tag.
# A major advantage of this format is that it allowed for the development of an autophosphorylation assay using Ni-chelate plates which bind the hexa-his tag on the recombinant Met kinase. Autophosphorylation assay allows to use a known substrate, Met kinase itself, for the phosphorylation. The DELFIA Met autophosphorylation assay is very sensitive with a signal to noise ratio in excess of 50:1.
# The assay procedure for screening is as follows. The purified His6 tagged cytoplasmic domain of c-Met was diluted to a concentration of 500 ng/ml in enzyme dilution buffer (50 mM Tris-HCl, pH8.0, 0.1% BSA) and dispensed to assay plates at a volume of 50 μl per well. Black opaque HisGrab Nickel coated 96 well plates (Pierce, Rockford, Ill.) were selected to run the assay. Next, 2.5 μl of compound in 40% DMSO was added to test wells, 2.5 μl of 40% DMSO only was added to the negative control wells. The autophosphorylation reaction was initiated upon the addition of 50 μl of reaction buffer, 50 mM Tris-HCl, pH 8.0, 10 mM MgCl2, 0.1 mM Na3VO4, 1 mM DTT, 1 μM ATP. Plates were incubated at room temperature for 1 hour followed by 2 washes with 200 μl/well of PBS. Europium conjugated anti-phosphotyrosine antibody, Eu-PY20 from Perkin Elmer was diluted to 50 ng/ml in Delfia AB buffer (Perkin Elmer, Boston, Mass.), added to the 96 well assay plates at a volume of […], and incubated at room temperature for 2 hours. Assay plates were then washed 4 times each with 200 μl/well of Delfia wash buffer (Perkin Elmer). After the final wash 150 μl of Delfia Enhancement solution (Perkin Elmer) was added to each well of the assay plate and incubated at room temperature for 1 hour. Plates were read on an LJL Analyst instrument (Molecular Devices; Sunnyvale, Calif.) with filter settings of 360 excitation, 620 emission, and 410 dichroic. IC50 values were calculated using Graphpad Prism software (Graphpad Software; San Diego, Calif.).
# Target sequence in this assay (P08581 956-1390 limits assumed): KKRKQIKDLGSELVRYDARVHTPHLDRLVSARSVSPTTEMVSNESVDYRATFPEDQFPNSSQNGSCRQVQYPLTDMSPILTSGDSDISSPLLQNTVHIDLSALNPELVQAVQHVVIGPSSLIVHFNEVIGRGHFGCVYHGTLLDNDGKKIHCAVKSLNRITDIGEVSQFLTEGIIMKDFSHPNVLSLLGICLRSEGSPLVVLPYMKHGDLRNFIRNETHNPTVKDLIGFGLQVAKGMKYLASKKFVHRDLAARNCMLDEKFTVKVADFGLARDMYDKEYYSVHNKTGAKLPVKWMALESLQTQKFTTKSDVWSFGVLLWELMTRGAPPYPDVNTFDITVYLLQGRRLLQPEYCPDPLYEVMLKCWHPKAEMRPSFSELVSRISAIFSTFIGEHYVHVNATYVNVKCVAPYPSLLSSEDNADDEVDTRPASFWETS
# [2] = biological target: T1, c-Met; assay: Fluorescence polarization assay on the kinase activity of c-Met; assay type: biochemical; parameters: The c-Met kinase domain consists amino acid 1046-1390 of the c-Met protein; made in house; host or cells: Sf9 insect cells with baculovirus; details: 6H-TEV-cMet, poly Gly4Tyr substrate, 10 μM ATP; read-out: c-Met FP Enz IC50
# Excerpt: A fluorescence polarization assay (FP) was developed for screening of compounds that decreases the kinase activity of c-Met.
# A protein (6H-TEV-cMet) comprising c-Met kinase domain was cloned, recombinantly expressed and purified following a procedure similar to that as described in Example A. The protein comprises a His tag consisting of six histidines at its N-terminal, a TEV protease cleavage site, and the c-Met kinase domain. The c-Met kinase domain consists amino acid 1046-1390 of the c-Met protein as listed in GenBank protein accession number P08581.
# For the c-Met kinase assay, the 6H-TEV-cMet was used as the enzyme, and a poly Gly4Tyr peptide (Sigma, P-0275) was used as the substrate. The kinase reaction was performed in a volume of 10 μl in HE microplates (LJL Biosystems). Assay conditions were as follows: 100 mM HEPES pH 7.5, 0.01% Tween-20, 1 mM DTT, 5 mM MgCl2, 10 μM ATP, 10 μg/ml poly Gly4Tyr. The kinase reaction was initiated upon addition of 10 nM 6H-TEV-cMet. After a 12 minute incubation at room temperature the reaction was terminated with […] 50 mM EDTA.
# Phosphorylation of the peptide substrate was detected with PanVera Tyrosine Kinase Assay Kit, Green reagents (P2837). Five minutes after the addition of EDTA, 10 μl of antibody/tracer mix (Pan Vera reagents, 1:1:3 dilution of antibody: Tracer: FP dilution buffer, Cat. # P2837) was added to each well. Plates were allowed to incubate for 30 minutes at room temperature and fluorescence polarization was measured with an LJL Analyst instrument (Molecular Devices; Sunnyvale, Calif.) with excitation=485 nm filter and emission=530 nm filter. IC50 values were calculated from triplicate sets of data using Graphpad Prism software (Graphpad Software; San Diego, Calif.).
# Target sequence in this assay (P08581 1046-1390): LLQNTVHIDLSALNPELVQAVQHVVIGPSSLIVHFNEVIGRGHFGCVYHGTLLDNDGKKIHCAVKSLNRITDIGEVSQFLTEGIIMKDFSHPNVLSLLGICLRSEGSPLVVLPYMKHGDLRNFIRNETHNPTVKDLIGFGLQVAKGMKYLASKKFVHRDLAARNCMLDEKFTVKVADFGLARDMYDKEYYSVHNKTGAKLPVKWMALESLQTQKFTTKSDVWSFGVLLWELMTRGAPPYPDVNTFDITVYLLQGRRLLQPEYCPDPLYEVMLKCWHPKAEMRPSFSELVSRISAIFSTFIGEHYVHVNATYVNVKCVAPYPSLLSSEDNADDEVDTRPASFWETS
# [3] = Aqueous solubility assay; details: water with 0.4% DMSO, kinetic from dmso stock
# Experimental: Water, PBS and aqueous HCl at pH2 having a final DMSO content of 0.4%, with the final DMSO concentration reaching 40 μM. Samples were placed in the incubator and shaken for 15 minutes.
Compound,IC50 [1] [nM],IC50 [2] [nM],solubility at 15 min [3] [µM]
"4-Bromo-3-[(2-2,3-dihydro-benzofuran-5-yl-acetyl)-hydrazono]-2-oxo-2,3-dihydro-1H-indole-6-carboxylic acid (3-morpholin-4-yl-propyl)-amide [Example 7]",0.7,1,
"O=C(Cc1ccc2c(c1)CCO2)N/N=C1/C(=O)Nc2cc(C(=O)NCCCN3CCC[C@H]3CO)cc(Br)c21 [Example 1, (S)-4-Bromo-3-[(2-2,3-dihydro-benzofuran-5-yl-acetyl)-hydrazono]-2-oxo-2,3-dihydro-1H-indole-6-carboxylic acid [3-(2-hydroxymethyl-pyrrolidin-1-yl)-propyl]-amide]",6,,
"CN1CCN(C(=O)c2cc(Br)c3c(c2)NC(=O)/C3=N\NC(=O)Cc2ccc3c(c2)CCO3)CC1 [Example 2, (2,3-Dihydro-benzofuran-5-yl)-aceticacid[4-bromo-6-(4-methyl-piperazine-1-carbonyl)-2-oxo-1,2-dihydro-indol-3-ylidene]-hydrazide]",10,,43.9
"O=C(Cc1ccc2c(c1)CCO2)N/N=C1\C(=O)Nc2cc(C(=O)NCCN3CCOCC3)ccc21 [Example 3, 3-[(2-2,3-Dihydro-benzofuran-5-yl-acetyl)-hydrazono]-2-oxo-2,3-dihydro-1H-indole-6-carboxylic acid(2-morpholin-4-yl-ethyl)-amide]",24,24,38.1
"CN1CCN(CCCNC(=O)c2ccc3c(c2)NC(=O)/C3=N\NC(=O)Cc2ccc3c(c2)CCO3)CC1 [Example 4, 3-[(2-2,3-Dihydro-benzofuran-5-yl-acetyl)-hydrazono]-2-oxo-2,3-dihydro-1H-indole-6-carboxylic acid [3-(4-methyl-piperazin-1-yl)-propyl]-amide]",28,,37.9
"CN1CCN(CCCNC(=O)c2cc(Br)c3c(c2)NC(=O)/C3=N\NC(=O)Cc2ccc3c(c2)CCO3)CC1 [Example 5, 4-Bromo-3-[(2-2,3-dihydro-benzofuran-5-yl-acetyl)-hydrazono]-2-oxo-2,3-dihydro-1H-indole-6-carboxylic acid [3-(4-methyl-piperazin-1-yl)-propyl]-amide]",1,13,38.8
"O=C(Cc1ccc2c(c1)CCO2)N/N=C1\C(=O)Nc2cc(C(=O)NCCN3CCOCC3)cc(Br)c21 [Example 6, 4-Bromo-3-[(2-2,3-dihydro-benzofuran-5-yl-acetyl)-hydrazono]-2-oxo-2,3-dihydro-1H-indole-6-carboxylic acid (2-morpholin-4-yl-ethyl)-amide]",5,5,44
"CN(C)CCCNC(=O)c1cc(Br)c2c(c1)NC(=O)/C2=N\NC(=O)Cc1ccc2c(c1)CCO2 [Example 9, 4-Bromo-3-[(2-2,3-dihydro-benzofuran-5-yl-acetyl)-hydrazono]-2-oxo-2,3-dihydro-1H-indole-6-carboxylic acid (3-dimethylamino-propyl)-amide]",5,,
"O=C(Cc1ccc2c(c1)CCO2)N/N=C1\C(=O)Nc2cc(C(=O)NCCCN3CC[C@@H](O)C3)cc(Br)c21 [Example 10, (R)-4-Bromo-3-[(2-2,3-dihydro-benzofuran-5-yl-acetyl)-hydrazono]-2-oxo-2,3-dihydro-1H-indole-6-carboxylic acid [3-(3-hydroxy-pyrrolidin-1-yl)-propyl]-amide]",0.7,,
"O=C(Cc1ccc2c(c1)CCO2)N/N=C1\C(=O)Nc2cc(C(=O)NCCCN3CCC[C@@H]3CO)cc(Br)c21 [Example 11, (R)-4-Bromo-3-[(2-2,3-dihydro-benzofuran-5-yl-acetyl)-hydrazono]-2-oxo-2,3-dihydro-1H-indole-6-carboxylic acid [3-(2-hydroxymethyl-pyrrolidin-1-yl)-propyl]-amide]",0.5,,
"O=C(Cc1ccc2c(c1)CCO2)N/N=C1\C(=O)Nc2cc(C(=O)NCCCN3CCC(O)CC3)cc(Br)c21 [Example 12, 4-Bromo-3-[(2-2,3-dihydro-benzofuran-5-yl-acetyl)-hydrazono]-2-oxo-2,3-dihydro-1H-indole-6-carboxylic acid [3-(4-hydroxy-piperidin-1-yl)-propyl]-amide]",2,,
"O=C(Cc1ccc2c(c1)CCO2)N/N=C1\C(=O)Nc2cc(C(=O)NCCCN3CC[C@H](O)C3)cc(Br)c21 [Example 13, (S)-4-Bromo-3-[(2-2,3-dihydro-benzofuran-5-yl-acetyl)-hydrazono]-2-oxo-2,3-dihydro-1H-indole-6-carboxylic acid [3-(3-hydroxy-pyrrolidin-1-yl)-propyl]-amide]",1,,
"CN(C)CCCNC(=O)c1cc(Br)c2c(c1)NC(=O)/C2=N\NC(=O)Cc1ccc2occc2c1 [Example 14, 3-[(2-Benzofuran-5-yl-acetyl)-hydrazono]-4-bromo-2-oxo-2,3-dihydro-1H-indole-6-carboxylic acid (3-dimethylamino-propyl)-amide]",1.6,,
"O=C(Cc1ccc2c(c1)CCO2)N/N=C1\C(=O)Nc2cc(C(=O)NCCCO)cc(Br)c21 [Example 15, 4-Bromo-3-[(2-2,3-dihydro-benzofuran-5-yl-acetyl)-hydrazono]-2-oxo-2,3-dihydro-1H-indole-6-carboxylic acid (3-hydroxy-propyl)-amide]",1,,
"CN1CCN(C(=O)c2cc(Br)c3c(c2)NC(=O)/C3=N\NC(=O)Cc2ccc3occc3c2)CC1 [Example 16, Benzofuran-5-yl-acetic acid [4-bromo-6-(4-methyl-piperazine-1-carbonyl)-2-oxo-1,2-dihydro-indol-3-ylidene]-hydrazide hydrochloride]",65,,
"CN1CCN(C(=O)c2cc(Br)c3c(c2)NC(=O)/C3=N\NC(=O)Cc2ccc3ocnc3c2)CC1 [Example 17, Benzooxazol-5-yl-acetic acid [4-bromo-6-(4-methyl-piperazine-1-carbonyl)-2-oxo-1,2-dihydro-indol-3-ylidene]-hydrazide]",656,,
"CN1CCN(C(=O)c2cc(Br)c3c(c2)NC(=O)/C3=N\NC(=O)Cc2ccc3sccc3c2)CC1 [Example 18, Benzothiophen-5-yl-acetic acid [4-bromo-6-(4-methyl-piperazine-1-carbonyl)-2-oxo-1,2-dihydro-indol-3-ylidene]-hydrazide hydrochloride]",4700,,
"CN1CCN(C(=O)c2cc(Br)c3c(c2)NC(=O)/C3=N\NC(=O)Cc2ccc3onc(N)c3c2)CC1 [Example 19, (3-Amino-benzo[d]isoxazol-5-yl)-acetic acid [4-bromo-6-(4-methyl-piperazine-1-carbonyl)-2-oxo-1,2-dihydro-indol-3-ylidene]-hydrazide]",158,,
